In BindingDB's records for doi:10.1021/jm8003625 (Abbott Laboratories, 2008):
pKi: −log10 of the molar value.

Experiments:
Histamine H3 receptor [1] = biological target: Histamine H3 receptor (Homo sapiens, UniProt Q9Y5N1); assay: Radioligand Binding Assay; conditions: pH 7.4; 25 °C
Description: (§1) Competition radioligand binding assays were performed with increasing concentrations of test compound in the presence of [3H]ligand. All binding reactions were terminated by filtration. Bound radiolabel was determined by liquid scintillation counting. For all of the radioligand competition binding assays, IC50 values and Hill slopes were determined by Hill transformation of the data and Ki values were determined by the Cheng-Prusoff equation.

Histamine H3 receptor [2] = biological target: Histamine H3 receptor (Rattus norvegicus, UniProt Q9QYN8); assay: Radioligand Binding Assay
Chain of Histamine H3 receptor (Rattus norvegicus, UniProt Q9QYN8) (Q9QYN8 whole entry): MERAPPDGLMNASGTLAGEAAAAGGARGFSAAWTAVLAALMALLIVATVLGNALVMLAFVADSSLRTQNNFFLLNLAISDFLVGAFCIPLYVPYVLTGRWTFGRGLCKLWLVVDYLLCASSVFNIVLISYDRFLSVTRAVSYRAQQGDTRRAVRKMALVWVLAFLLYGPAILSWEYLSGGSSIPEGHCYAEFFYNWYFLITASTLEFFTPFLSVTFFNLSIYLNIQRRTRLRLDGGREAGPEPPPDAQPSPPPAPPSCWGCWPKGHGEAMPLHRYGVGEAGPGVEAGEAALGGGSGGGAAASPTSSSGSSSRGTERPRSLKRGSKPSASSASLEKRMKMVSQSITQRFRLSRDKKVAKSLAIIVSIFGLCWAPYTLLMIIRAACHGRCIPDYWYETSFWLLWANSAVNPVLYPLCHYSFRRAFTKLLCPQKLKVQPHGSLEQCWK
Description: as §1

Chain of Histamine H3 receptor (Homo sapiens, UniProt Q9Y5N1) (Q9Y5N1 whole entry): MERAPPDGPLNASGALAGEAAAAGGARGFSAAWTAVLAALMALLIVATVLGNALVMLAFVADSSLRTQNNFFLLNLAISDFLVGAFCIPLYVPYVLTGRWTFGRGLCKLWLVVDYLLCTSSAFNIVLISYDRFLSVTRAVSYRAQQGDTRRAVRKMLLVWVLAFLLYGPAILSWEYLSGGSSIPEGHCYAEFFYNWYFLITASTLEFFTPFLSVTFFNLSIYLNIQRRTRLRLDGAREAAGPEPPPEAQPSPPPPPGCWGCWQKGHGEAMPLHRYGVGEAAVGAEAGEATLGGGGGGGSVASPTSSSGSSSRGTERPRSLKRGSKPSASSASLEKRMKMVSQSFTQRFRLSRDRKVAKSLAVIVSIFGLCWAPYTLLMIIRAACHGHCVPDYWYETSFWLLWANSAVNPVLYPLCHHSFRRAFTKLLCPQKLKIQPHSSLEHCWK

CN[C@H]1CC[C@@]2(C)C(=CC[C@H]3[C@@H]4CC[C@@H]5[C@H](C)N(C)C[C@@]54CC[C@@H]32)C1 [(1R,2S,5S,6S,9R,12S,13R,16S)-N,6,7,13-tetramethyl-7-azapentacyclo[10.8.0.0^{2,9}.0^{5,9}.0^{13,18}]icos-18-en-16-amine]
pKi (Histamine H3 receptor [1]): 7.42
pKi (Histamine H3 receptor [2]): 6.52
